LD50 data for one compound are collected here from patent US4334078A, “Dibenzothiophenes” (Hoffmann-La Roche Inc., priority 1980, dated 1982).

The series concerns mice. Put plainly: acute toxicity (LD50). The format is in vivo. The conditions noted are these: p.o. in mice.

`O=C(O)Cc1ccc2c(c1)sc1ccc(Cl)cc12` [8-chloro-dibenzothiophene-3-acetic acid] yielded an LD50 of 775 mg.
